Experiment in all cases: relative viability (nuclei count vs DMSO), 5 days (fraction); higher = more cells survive
Compound in assay [1]: C1=CC2=C(C=C(C(=C2N=C1)O)N=NC3=CC4=C(C=C3)C=C(C=C4)S(=O)(=O)O)S(=O)(=O)O + Nc1ncn([C@H]2C[C@H](O)[C@@H](CO)O2)c(=O)n1 [Decitabine] (partner 2 µM)
Put shortly: (§1)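 For relative viability, nuclei counts in treated wells were divided by those in vehicle wells. Lung cancer cell lines had been pin-tool dosed in 1536-well plates the day after seeding and cultured for 5 days, then fixed and stained in one step (final 0.05% Triton X-100, 1% formaldehyde, 1 ug/ml Hoechst) and imaged at 4×. Doses were one drug alone or a fixed anchor-drug dose plus five library-drug doses (not always all listed) in √10 steps, and values are duplicate-plate medians.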

Compound in assay [2]: C1=CC2=C(C=C(C(=C2N=C1)O)N=NC3=CC4=C(C=C3)C=C(C=C4)S(=O)(=O)O)S(=O)(=O)O + CCNC(=O)c1noc(-c2cc(C(C)C)c(O)cc2O)c1-c1ccc(CN2CCOCC2)cc1 [Luminespib] (partner 0.01 µM)
Put shortly:
as §1

Compound in assay [3]: C1=CC2=C(C=C(C(=C2N=C1)O)N=NC3=CC4=C(C=C3)C=C(C=C4)S(=O)(=O)O)S(=O)(=O)O + N=C(N)NC(=N)NCCc1ccccc1 [Phenformin] (partner 250 µM)
The gist of the method:
as §1

Compound in assay [4]: O=C(NC1CCNCC1)c1n[nH]cc1NC(=O)c1c(Cl)cccc1Cl [AT-7519] + C[C@]1(O)C[C@@H](c2nc(-c3ccc4ccc(-c5ccccc5)nc4c3)c3c(N)nccn32)C1 [Linsitinib] (partner 1 µM)
The gist of the method:
as §1

As for NCI-H1648, the values for the relative viability in assay [1] (first compound 0.253 µM) and in assay [1] (first compound 8 µM) were 0.525 and 0.551, respectively.

SK-MES-1: the relative viability in assay [1] (first compound 0.08 µM) was found to be 0.39; in assay [1] (first compound 0.253 µM), 0.362; in assay [1] (first compound 0.8 µM), 0.336; in assay [1] (first compound 2.53 µM), 0.405; in assay [1] (first compound 8 µM), 0.367; in assay [2] (first compound 0.08 µM), 0.786. The relative viability was found to be 0.818 in assay [2] (first compound 0.253 µM); 0.735 in assay [2] (first compound 0.8 µM); 0.662 in assay [2] (first compound 2.53 µM); 0.783 in assay [2] (first compound 8 µM); 0.731 in assay [3] (first compound 0.08 µM); 0.674 in assay [3] (first compound 0.253 µM). The relative viability in assay [3] (first compound 0.8 µM) was determined as 0.672; in assay [3] (first compound 2.53 µM), 0.692; in assay [3] (first compound 8 µM), 0.652; in assay [4] (first compound 0.01 µM) it was 1.08; in assay [4] (first compound 0.03162 µM) it was 0.958; in assay [4] (first compound 0.3162 µM) it was 1.08. Besides, the relative viability in assay [4] (first compound 1 µM) is 0.953.

On to HCC-366, for which the relative viability is 0.299 in assay [1] (first compound 0.08 µM); 0.307 in assay [1] (first compound 0.253 µM); 0.347 in assay [1] (first compound 0.8 µM); 0.357 in assay [1] (first compound 2.53 µM); 0.358 in assay [1] (first compound 8 µM); 0.646 in assay [3] (first compound 0.08 µM). In addition, the relative viability in assay [3] (first compound 0.253 µM) was 0.618; in assay [3] (first compound 0.8 µM), 0.585; in assay [3] (first compound 2.53 µM), 0.631; in assay [3] (first compound 8 µM), 0.589; in assay [4] (first compound 0.01 µM), 0.639; in assay [4] (first compound 0.03162 µM), 0.522. Besides, the relative viability in assay [4] (first compound 0.3162 µM) worked out at 0.429; in assay [4] (first compound 1 µM), 0.185.

For 201T, the relative viability in assay [1] (first compound 0.08 µM) turned out to be 0.887; in assay [1] (first compound 0.253 µM), 0.848; in assay [1] (first compound 0.8 µM), 0.873; in assay [1] (first compound 2.53 µM), 0.87; in assay [1] (first compound 8 µM), 0.845; in assay [2] (first compound 0.08 µM), 1.09. Further, the relative viability in assay [2] (first compound 0.253 µM) amounted to 1.09; in assay [2] (first compound 0.8 µM), 1.04; in assay [2] (first compound 2.53 µM), 1.09; in assay [2] (first compound 8 µM), 1.04; in assay [3] (first compound 0.08 µM) it was 0.458; in assay [3] (first compound 0.253 µM) it was 0.426. The relative viability in assay [3] (first compound 0.8 µM) was 0.458; in assay [3] (first compound 2.53 µM), 0.433; in assay [3] (first compound 8 µM) it was 0.306; in assay [4] (first compound 0.01 µM), 0.933; in assay [4] (first compound 0.03162 µM) it was 1.04; in assay [4] (first compound 0.3162 µM), 1.06. For the same cell line, the relative viability in assay [4] (first compound 1 µM) worked out at 1.05.

For HCC-827, the relative viability was found to be 0.402 in assay [1] (first compound 0.08 µM); 0.311 in assay [1] (first compound 0.253 µM); 0.297 in assay [1] (first compound 0.8 µM); 0.342 in assay [1] (first compound 2.53 µM); 0.306 in assay [1] (first compound 8 µM); 0.859 in assay [2] (first compound 0.08 µM). The relative viability worked out at 0.576 in assay [2] (first compound 0.253 µM); 0.592 in assay [2] (first compound 0.8 µM); 0.693 in assay [2] (first compound 2.53 µM); 0.683 in assay [2] (first compound 8 µM); 0.405 in assay [3] (first compound 0.08 µM); 0.335 in assay [3] (first compound 0.253 µM). Moreover, the relative viability in assay [3] (first compound 0.8 µM) was found to be 0.397; in assay [3] (first compound 2.53 µM), 0.416; in assay [3] (first compound 8 µM), 0.45; in assay [4] (first compound 0.01 µM) it was 0.959; in assay [4] (first compound 0.03162 µM), 0.973; in assay [4] (first compound 0.3162 µM) it was 0.946. The relative viability in assay [4] (first compound 1 µM) amounted to 0.899.

For the cell line NCI-H647, the relative viability was 0.35 in assay [1] (first compound 0.08 µM); 0.412 in assay [1] (first compound 0.253 µM); 0.415 in assay [1] (first compound 0.8 µM); 0.45 in assay [1] (first compound 2.53 µM); 0.401 in assay [1] (first compound 8 µM); 0.138 in assay [2] (first compound 0.08 µM). Besides, the relative viability was 0.241 in assay [2] (first compound 0.253 µM); 0.215 in assay [2] (first compound 0.8 µM); 0.276 in assay [2] (first compound 2.53 µM); 0.135 in assay [2] (first compound 8 µM); 0.668 in assay [3] (first compound 0.08 µM); 0.486 in assay [3] (first compound 0.253 µM). Besides, the relative viability is 0.449 in assay [3] (first compound 0.8 µM); 0.534 in assay [3] (first compound 2.53 µM); 0.525 in assay [3] (first compound 8 µM); 0.982 in assay [4] (first compound 0.01 µM); 1.13 in assay [4] (first compound 0.03162 µM); 1.38 in assay [4] (first compound 0.3162 µM). The relative viability in assay [4] (first compound 1 µM) is 0.48.

Regarding NCI-H2023, the relative viability in assay [1] (first compound 0.08 µM) worked out at 0.24; in assay [1] (first compound 0.253 µM), 0.243; in assay [1] (first compound 0.8 µM) it was 0.258; in assay [1] (first compound 2.53 µM) it was 0.24; in assay [1] (first compound 8 µM) it was 0.19; in assay [2] (first compound 0.08 µM) it was 0.87. The relative viability in assay [2] (first compound 0.253 µM) was 0.741; in assay [2] (first compound 0.8 µM), 0.788; in assay [2] (first compound 2.53 µM) it was 0.914; in assay [2] (first compound 8 µM), 0.52; in assay [3] (first compound 0.08 µM), 0.393; in assay [3] (first compound 0.253 µM) it was 0.394. In addition, the relative viability in assay [3] (first compound 0.8 µM) amounted to 0.432; in assay [3] (first compound 2.53 µM), 0.376; in assay [3] (first compound 8 µM), 0.379; in assay [4] (first compound 0.01 µM), 0.731; in assay [4] (first compound 0.03162 µM), 0.699; in assay [4] (first compound 0.3162 µM), 0.626. Moreover, in assay [4] (first compound 1 µM), the relative viability stood at 0.329.

On to NCI-H520, for which the relative viability came to 0.525 in assay [1] (first compound 0.08 µM); 0.519 in assay [1] (first compound 0.253 µM); 0.542 in assay [1] (first compound 0.8 µM); 0.468 in assay [1] (first compound 2.53 µM); 0.508 in assay [1] (first compound 8 µM); 0.237 in assay [2] (first compound 0.08 µM). Further, the relative viability in assay [2] (first compound 0.253 µM) is 0.218; in assay [2] (first compound 0.8 µM), 0.237; in assay [2] (first compound 2.53 µM) it was 0.225; in assay [2] (first compound 8 µM) it was 0.231; in assay [3] (first compound 0.08 µM) it was 0.493; in assay [3] (first compound 0.253 µM), 0.496. The relative viability turned out to be 0.585 in assay [3] (first compound 0.8 µM); 0.321 in assay [3] (first compound 2.53 µM); 0.727 in assay [3] (first compound 8 µM); 1.01 in assay [4] (first compound 0.01 µM); 0.88 in assay [4] (first compound 0.03162 µM); 0.82 in assay [4] (first compound 0.3162 µM). Further, the relative viability in assay [4] (first compound 1 µM) was determined as 0.454.
